PMC9552116 (Biochemistry and Biophysics Reports, 2022)
Bridge positions count the residues as written; N and C are the ends. Square brackets hold non-standard residues; d marks the D form. Peptide text beside a SMILES is read from it. * marks the point of attachment. Biotin = O=C1N[C@H]2[C@H](CS[C@H]2CCCCC(=O)*)N1; Nle = CCCC[C@H](N)C(=O)O

How the values were obtained:
human LRP1(CL3)-Fc = human LRP1(CL3)-Fc (Homo sapiens, UniProt Q07954); test: Cell-free ELISA, binding of biotinylated peptide to captured LRP1; conditions: Fig. 3, n = 3
human LRP1(CL2)-Fc = human LRP1(CL2)-Fc (Homo sapiens, UniProt Q07954); test: as above; conditions: Fig. 3, n = 3
human LRP1(CL4)-Fc = human LRP1(CL4)-Fc (Homo sapiens, UniProt Q07954); test: as above; conditions: Supplementary Fig. S1
[1] = test system: in vitro rat BBB model kit (RBT-24H); test: BBB permeability in in vitro rat BBB model; type: in vitro ADME; conditions: 1 μM input, 30 min, 37 °C, fluorescence, n = 1
LRP1(CL2) = conditions: ref [18]; cited from earlier work
LRP1 = conditions: read-out: LRP1-binding EC50; ref [18]; cited from earlier work

Molecule | binding to LRP1(CL3) (human LRP1(CL3)-Fc) | binding to LRP1(CL2) (human LRP1(CL2)-Fc) | other results
CCCC[C@H](NC(=O)[C@H](CCC(=O)O)NC(=O)[C@H](C)NC(=O)[C@H](CC(C)C)NC(=O)[C@H](CCCC)NC(=O)[C@H](Cc1ccc(O)cc1)NC(=O)[C@H](CCCCN)NC(=O)[C@H](Cc1ccc(O)cc1)NC(=O)[C@@H](NC(=O)[C@H](CS)NC(=O)[C@@H]1CCCN1C(=O)[C@@H](NC(=O)CNC(=O)[C@H](CCCCNC(=O)CCCC[C@@H]1SC[C@@H]2NC(=O)N[C@@H]21)NC(C)=O)[C@@H](C)O)[C@@H](C)O)C(=O)N[C@@H](CS)C(=O)O [Biotin-KS-487(linear)] (Ac-K(Biotin)GTPCTYKY[Nle]LAE[Nle]C-OH) | no binding or slight binding | no binding or slight binding | 
CCCC[C@@H]1NC(=O)[C@H](CCC(=O)O)NC(=O)[C@H](C)NC(=O)[C@H](CC(C)C)NC(=O)[C@H](CCCC)NC(=O)[C@H](Cc2ccc(O)cc2)NC(=O)[C@H](CCCCN)NC(=O)[C@H](Cc2ccc(O)cc2)NC(=O)[C@H]([C@@H](C)O)NC(=O)[C@@H](NC(=O)[C@@H]2CCCN2C(=O)[C@@H](NC(=O)CNC(=O)[C@H](CCCCNC(=O)CCCC[C@@H]2SC[C@@H]3NC(=O)N[C@@H]32)NC(C)=O)[C@@H](C)O)CSSC[C@@H](C(=O)O)NC1=O [Biotin-KS-487] (Ac-K(Biotin)GTPCTYKY[Nle]LAE[Nle]C-OH; disulfide 5-15) | no binding or slight binding | no binding or slight binding | 
CSCC[C@@H]1NC(=O)[C@H](CCC(=O)O)NC(=O)[C@H](C)NC(=O)[C@H](CC(C)C)NC(=O)[C@H](CCSC)NC(=O)[C@H](Cc2ccc(O)cc2)NC(=O)[C@H](CCCCN)NC(=O)[C@H](Cc2ccc(O)cc2)NC(=O)[C@H]([C@@H](C)O)NC(=O)[C@@H](NC(=O)[C@@H]2CCCN2C(=O)[C@@H](NC(=O)CNC(=O)[C@H](CCCCNC(=O)CCCC[C@@H]2SC[C@@H]3NC(=O)N[C@@H]32)NC(C)=O)[C@@H](C)O)CSSC[C@@H](C(=O)O)NC1=O [Biotin-Pep0] (Ac-K(Biotin)GTPCTYKYMLAEMC-OH; disulfide 5-15; N-terminus and C-terminus assumed) |  |  | binding activity to LRP1(CL4) (human LRP1(CL4)-Fc): moderate binding activity
C[C@@H](O)[C@H](NC(=O)CNC(=O)[C@@H](N)CCCCNC(=O)c1ccc2c(c1)C(=O)OC21c2ccc(O)cc2Oc2cc(O)ccc21)C(=O)N[C@@H](Cc1ccccc1)C(=O)N[C@@H](Cc1ccccc1)C(=O)N[C@@H](Cc1ccc(O)cc1)C(=O)NCC(=O)NCC(=O)N[C@@H](CO)C(=O)N[C@@H](CCCNC(=N)N)C(=O)NCC(=O)N[C@@H](CCCCN)C(=O)N[C@@H](CCCNC(=N)N)C(=O)N[C@@H](CC(N)=O)C(=O)N[C@@H](CC(N)=O)C(=O)N[C@@H](Cc1ccccc1)C(=O)N[C@@H](CCCCN)C(=O)N[C@H](C(=O)N[C@@H](CCC(=O)O)C(=O)N[C@@H](CCC(=O)O)C(=O)N[C@@H](Cc1ccc(O)cc1)C(=O)O)[C@@H](C)O [Pep 5FAM-ANG2] |  |  | % input crossed to the brain side [1]: below 0.5%
TWPKHFDKHTFYSILKLGKH-OH [Pep L57] |  |  | cross-reactivity to LRP1(CL2) (LRP1(CL2)): cross-reactivity; EC50 (LRP1): 45 nM
